{"source": "ChEMBL document CHEMBL1155792", "about": "“QSAR prediction of inhibition of aldose reductase for flavonoids” (Bioorg Med Chem, 2008)"}
{"molecular_target": "Aldo-keto reductase family 1 member B1 (Rattus norvegicus, UniProt P07943)", "test": "Inhibition of rat lens aldose reductase", "units": {"IC50": "µM"}}
{"smiles": "COc1c(-c2ccc(O)c(O)c2)oc2c(OC)c(O)cc(O)c2c1=O", "IC50": 0.24}
{"smiles": "COc1cc(O)cc2oc(-c3ccccc3)cc(=O)c12", "IC50": 1000}
{"smiles": "COc1cc(-c2cc(=O)c3c(OC)c(OC)c(OC)c(OC)c3o2)ccc1O", "IC50": 18.6}
{"smiles": "COc1c(OC)c(OC)c2c(=O)cc(-c3ccc(O)c(O)c3)oc2c1OC", "IC50": 0.0324}
{"smiles": "COc1cc(-c2cc(=O)c3c(O)c(O)c(O)c(OC)c3o2)ccc1O", "IC50": 1.2}
{"smiles": "COc1cc(O)c2c(=O)cc(-c3ccc(O)c(O)c3)oc2c1O", "IC50": 0.229}
{"smiles": "COc1c(O)c(OC)c2c(=O)cc(-c3ccccc3)oc2c1OC", "IC50": 288}
{"smiles": "O=c1cc(-c2ccccc2O)oc2cc(O)ccc12", "IC50": 1.66}
{"smiles": "COc1cc2oc(-c3ccc(O)c(O)c3)c(C(C)=O)c(=O)c2c(OC)c1OC", "IC50": 8.91}
{"smiles": "COc1cc(-c2cc(=O)c3c(O)c(OC)c(OC)cc3o2)ccc1OC1O[C@H](CO)[C@@H](O)[C@H](O)[C@H]1O", "note": "(some centres not stated)", "IC50": 13.2}
{"smiles": "COc1c(O)c(OC)c2oc(-c3ccc(O)cc3)cc(=O)c2c1O", "IC50": 0.407}
{"smiles": "COc1cc2oc(-c3ccc(O)c(O)c3)cc(=O)c2c(O)c1O", "IC50": 0.302}
{"smiles": "COc1cc(OC)c2c(=O)c(OC)c(-c3ccc(O)c(O)c3)oc2c1OC", "IC50": 0.17}
{"smiles": "COc1c(O)c(Cc2ccccc2)c2oc(-c3ccc(O)c(O)c3)cc(=O)c2c1O", "IC50": 0.0339}
{"smiles": "COc1c(O)c(OC)c2c(=O)cc(-c3ccc(O)c(O)c3)oc2c1OC", "IC50": 0.035}
{"smiles": "COc1c(O)cc(O)c2c(=O)cc(-c3ccc(O)c(O)c3)oc12", "IC50": 0.282}
{"smiles": "COc1c(-c2ccc(O)c(O)c2)oc2c(OC)c(O)cc(OC)c2c1=O", "IC50": 0.282}
{"smiles": "COc1c(OC(C)=O)c(OC(C)=O)c(OC(C)=O)c2c(=O)cc(-c3ccc(OC(C)=O)c(OC(C)=O)c3)oc12", "IC50": 0.302}
{"smiles": "COc1cc(-c2cc(=O)c3c(O)c(OC)c(O)c(OC)c3o2)ccc1OC1O[C@H](CO)[C@@H](O)[C@H](O)[C@H]1O", "note": "(some centres not stated)", "IC50": 18.2}
{"smiles": "COc1cc(-c2cc(=O)c3c(O)c(OC)c(OC4O[C@H](CO)[C@@H](O)[C@H](O)[C@H]4O)c(OC)c3o2)ccc1O", "note": "(some centres not stated)", "IC50": 20.9}
{"smiles": "COc1cc2oc(-c3ccc(O)c(O)c3)c(OC)c(=O)c2c(OC)c1OC", "IC50": 0.269}
{"smiles": "COc1cc(O)c2c(=O)cc(-c3cc(O)c(OC)cc3OC)oc2c1", "IC50": 316}
{"smiles": "COc1cc(-c2cc(=O)c3c(OC)c(O)c(OC)c(OC)c3o2)ccc1O", "IC50": 6.31}
{"smiles": "COc1cc2oc(-c3ccc(O)c(O)c3)c(OC)c(=O)c2c(OC)c1O", "IC50": 0.302}
{"smiles": "COc1c(O)c(O)c(O)c2c(=O)cc(-c3ccccc3)oc12", "IC50": 8.13}
{"smiles": "COc1c(O)c(O)c2c(=O)cc(-c3ccccc3)oc2c1OC", "IC50": 8.39}
{"smiles": "COc1cc(-c2cc(=O)c3c(O)c(O)c(OC)c(OC)c3o2)ccc1O", "IC50": 110}
{"smiles": "COc1c(O)c(O)c2c(=O)cc(-c3ccc(O)cc3)oc2c1OC", "IC50": 0.851}
{"smiles": "COc1c(-c2ccc(O)c(O)c2)oc2cc(O)c(O)c(O)c2c1=O", "IC50": 0.0575}
{"smiles": "COc1c(O)c(O)c2c(=O)cc(-c3ccc(O)c(O)c3)oc2c1OC", "IC50": 0.0646}
{"smiles": "COc1c(O)cc(OC)c2c(=O)cc(-c3ccc(O)c(O)c3)oc12", "IC50": 0.0741}
{"smiles": "COc1c(O)c(O)c(O)c2c(=O)cc(-c3ccc(O)c(O)c3)oc12", "IC50": 0.12}
{"smiles": "COc1cc2oc(-c3ccc(O)c(O)c3)cc(=O)c2c(OC)c1O", "IC50": 0.141}
{"smiles": "COc1cc(OC)c2c(=O)cc(-c3ccc(O)c(O)c3)oc2c1O", "IC50": 0.162}
{"smiles": "C[C@H]1OC(Oc2c(-c3ccc(O)c(O)c3)oc3cc(O)cc(O)c3c2=O)[C@@H](O)[C@@H](O)[C@@H]1O", "note": "(some centres not stated)", "IC50": 1.17}
{"smiles": "O=c1cc(-c2ccc(O)cc2)oc2ccc(O)cc12", "IC50": 5.25}
{"smiles": "COc1cc2oc(-c3ccc(O)c(O)c3)c(OC)c(=O)c2c(O)c1O", "IC50": 0.813}
{"smiles": "COc1ccc(-c2cc(=O)c3c(O)c(OC)c(O)c(OC)c3o2)cc1OC", "IC50": 29.5}
{"smiles": "COc1cc2oc(-c3ccc(OC4O[C@H](CO)[C@@H](O)[C@H](O)[C@H]4O)cc3)cc(=O)c2c(O)c1OC", "note": "(some centres not stated)", "IC50": 16.2}
{"smiles": "COc1cc2oc(-c3ccc(OC4O[C@H](CO)[C@@H](O)[C@H](O)[C@H]4O)c(O)c3)cc(=O)c2c(O)c1OC", "note": "(some centres not stated)", "IC50": 8.2}
{"smiles": "COc1c(O)c(O)c(O)c2c(=O)cc(-c3ccc(O)cc3)oc12", "IC50": 1.2}
{"smiles": "COc1cc(O)c2c(=O)cc(-c3cc(OC)c(O)cc3OC)oc2c1", "IC50": 1000}
{"smiles": "O=c1cc(-c2ccc(O)cc2O)oc2cc(O)ccc12", "IC50": 2.29}
{"smiles": "COc1cc(OC)c2c(=O)cc(-c3ccc(O)c(O)c3)oc2c1OC", "IC50": 0.0447}
{"smiles": "COc1cc2oc(-c3ccc(O)c(O)c3)cc(=O)c2c(OC)c1OC", "IC50": 0.0912}
{"smiles": "COc1cc(-c2cc(=O)c3c(O)c(OC)c(OC)c(OC)c3o2)ccc1O", "IC50": 45.7}
{"smiles": "COc1cc(O)c2c(=O)cc(-c3ccc(O)c(O)c3)oc2c1OC", "IC50": 0.0776}
{"smiles": "O=c1cc(-c2ccc(O)c(O)c2)oc2cc(O)c(O)c(O)c12", "note": "[6-HYDROXYLUTEOLIN]", "IC50": 0.204}
{"smiles": "COc1c(O)cc2oc(-c3ccc(O)c(O)c3)c(OC)c(=O)c2c1O", "note": "[AXILLARIN]", "IC50": 0.028}
{"smiles": "COc1cc2oc(-c3ccc(O)c(O)c3)c(OC)c(=O)c2c(O)c1OC", "note": "[CHRYSOSPLENOL D]", "IC50": 0.348}
{"smiles": "COc1cc(-c2cc(=O)c3c(O)c(OC)c(OC)cc3o2)ccc1O", "note": "[CIRSILENEOL]", "IC50": 6.76}
{"smiles": "COc1cc2oc(-c3ccc(O)c(O)c3)cc(=O)c2c(O)c1OC", "note": "[CIRSILIOL]", "IC50": 0.17}
{"smiles": "COc1cc2oc(-c3ccc(O)cc3)cc(=O)c2c(O)c1OC", "note": "[CIRSIMARITIN]", "IC50": 1.41}
{"smiles": "COc1ccc(-c2cc(=O)c3c(O)c(OC)c(O)c(OC)c3o2)cc1", "note": "[NEVADENSIN]", "IC50": 7.24}
{"smiles": "COc1c(OC)c(O)c2c(=O)cc(-c3ccc(O)c(O)c3)oc2c1OC", "note": "[SIDERITIFLAVONE]", "IC50": 0.0389}
{"smiles": "COc1cc(-c2cc(=O)c3c(O)c(OC)c(O)c(OC)c3o2)ccc1O", "note": "[SUDACHITIN]", "IC50": 4.47}
{"smiles": "COc1c(OC)c(O)c2c(=O)cc(-c3ccc(O)cc3)oc2c1OC", "note": "[XANTHOMICROL]", "IC50": 0.537}
